We go through three molecules from ChEMBL document CHEMBL3124838, “Discovery of 6-aryl-azabenzimidazoles that inhibit the TBK1/IKK-ε kinases” (Bioorg Med Chem Lett, 2014).

Sequence of Misshapen-like kinase 1 (Homo sapiens) (Q8N4C8 whole entry, looked up): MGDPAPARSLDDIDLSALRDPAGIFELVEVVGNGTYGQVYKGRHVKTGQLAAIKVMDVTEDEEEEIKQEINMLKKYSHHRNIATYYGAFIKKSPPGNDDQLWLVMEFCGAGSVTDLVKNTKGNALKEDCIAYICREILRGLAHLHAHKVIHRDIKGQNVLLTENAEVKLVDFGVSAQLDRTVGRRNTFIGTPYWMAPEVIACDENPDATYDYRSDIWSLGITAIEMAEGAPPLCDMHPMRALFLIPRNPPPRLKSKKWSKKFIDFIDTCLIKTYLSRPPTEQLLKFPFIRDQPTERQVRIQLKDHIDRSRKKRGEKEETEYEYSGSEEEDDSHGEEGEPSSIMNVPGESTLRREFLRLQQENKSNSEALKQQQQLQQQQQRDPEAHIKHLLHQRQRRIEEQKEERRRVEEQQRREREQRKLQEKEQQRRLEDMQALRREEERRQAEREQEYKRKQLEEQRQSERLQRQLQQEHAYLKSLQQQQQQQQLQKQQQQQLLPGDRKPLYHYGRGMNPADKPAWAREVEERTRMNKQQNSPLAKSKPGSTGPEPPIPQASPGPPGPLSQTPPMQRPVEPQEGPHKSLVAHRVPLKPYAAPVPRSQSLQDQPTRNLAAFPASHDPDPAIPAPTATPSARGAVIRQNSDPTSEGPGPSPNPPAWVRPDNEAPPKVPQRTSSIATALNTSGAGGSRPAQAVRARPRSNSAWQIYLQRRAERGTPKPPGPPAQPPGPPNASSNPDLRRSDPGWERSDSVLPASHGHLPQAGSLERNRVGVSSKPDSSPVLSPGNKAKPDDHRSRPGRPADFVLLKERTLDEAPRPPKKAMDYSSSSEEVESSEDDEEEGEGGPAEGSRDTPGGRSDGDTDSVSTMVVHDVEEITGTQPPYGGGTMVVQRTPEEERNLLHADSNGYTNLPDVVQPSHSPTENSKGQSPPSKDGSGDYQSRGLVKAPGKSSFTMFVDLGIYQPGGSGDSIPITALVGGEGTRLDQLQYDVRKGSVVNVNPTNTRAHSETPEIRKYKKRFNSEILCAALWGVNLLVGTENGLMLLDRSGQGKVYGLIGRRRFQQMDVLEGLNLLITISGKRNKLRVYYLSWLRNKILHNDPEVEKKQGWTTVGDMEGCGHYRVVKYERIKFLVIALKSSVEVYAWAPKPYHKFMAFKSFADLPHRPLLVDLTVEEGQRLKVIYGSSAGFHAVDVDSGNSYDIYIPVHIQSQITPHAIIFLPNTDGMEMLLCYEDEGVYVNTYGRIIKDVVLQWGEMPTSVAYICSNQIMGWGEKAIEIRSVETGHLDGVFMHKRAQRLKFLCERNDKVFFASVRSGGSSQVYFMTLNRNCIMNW

One assay deals with Receptor tyrosine-protein kinase erbB-4 (Homo sapiens) (UniProt Q15303). As to the kind of experiment: Inhibition of human ERBB4 assessed as residual activity at 1 uM relative to control.
Sequence of Receptor tyrosine-protein kinase erbB-4 (Homo sapiens) (Q15303 whole entry): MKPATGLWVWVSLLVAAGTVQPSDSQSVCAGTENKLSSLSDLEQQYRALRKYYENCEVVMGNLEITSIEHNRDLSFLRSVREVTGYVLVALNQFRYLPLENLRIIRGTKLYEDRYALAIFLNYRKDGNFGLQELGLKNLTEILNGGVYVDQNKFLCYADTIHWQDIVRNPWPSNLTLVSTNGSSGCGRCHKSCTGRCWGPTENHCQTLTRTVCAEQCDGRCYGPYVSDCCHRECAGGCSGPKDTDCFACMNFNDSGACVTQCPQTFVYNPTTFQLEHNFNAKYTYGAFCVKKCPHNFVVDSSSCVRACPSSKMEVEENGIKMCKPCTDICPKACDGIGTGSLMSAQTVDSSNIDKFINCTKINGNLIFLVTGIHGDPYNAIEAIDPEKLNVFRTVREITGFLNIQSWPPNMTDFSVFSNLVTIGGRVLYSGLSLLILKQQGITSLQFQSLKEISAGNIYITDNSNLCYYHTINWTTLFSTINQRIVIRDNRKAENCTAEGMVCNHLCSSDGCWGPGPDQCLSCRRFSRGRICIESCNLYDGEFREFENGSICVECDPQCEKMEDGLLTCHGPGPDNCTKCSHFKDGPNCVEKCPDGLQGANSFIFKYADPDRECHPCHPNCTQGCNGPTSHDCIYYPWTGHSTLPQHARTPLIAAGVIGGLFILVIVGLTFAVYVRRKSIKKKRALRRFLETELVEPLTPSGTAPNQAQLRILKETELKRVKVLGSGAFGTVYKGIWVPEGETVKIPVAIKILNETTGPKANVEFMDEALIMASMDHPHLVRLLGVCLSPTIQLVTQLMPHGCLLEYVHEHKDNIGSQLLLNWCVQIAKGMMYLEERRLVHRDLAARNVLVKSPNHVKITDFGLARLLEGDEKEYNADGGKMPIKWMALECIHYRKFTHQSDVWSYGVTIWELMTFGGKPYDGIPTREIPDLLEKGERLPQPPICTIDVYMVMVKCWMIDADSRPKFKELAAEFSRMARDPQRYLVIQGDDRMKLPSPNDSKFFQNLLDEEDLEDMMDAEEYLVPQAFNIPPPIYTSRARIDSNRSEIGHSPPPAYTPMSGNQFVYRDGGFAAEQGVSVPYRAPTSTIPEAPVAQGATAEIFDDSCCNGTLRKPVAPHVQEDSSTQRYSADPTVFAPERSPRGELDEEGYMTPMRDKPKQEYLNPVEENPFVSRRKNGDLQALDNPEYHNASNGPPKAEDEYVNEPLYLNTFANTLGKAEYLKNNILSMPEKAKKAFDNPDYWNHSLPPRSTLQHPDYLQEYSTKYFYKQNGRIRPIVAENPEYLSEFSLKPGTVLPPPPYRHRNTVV
For `COc1ccc(-c2nc3cc(-c4csc(C(=O)NCCC(C)C)c4)cnc3[nH]2)cc1`, the Activity stood at 93%.

On to `COc1ccc(-c2nc3cc(-c4csc(C(=O)NCC(C)(C)C)c4)cnc3[nH]2)cc1`, for which the Activity amounted to 91%.

Consider `COc1ccc(-c2nc3cc(-c4csc(C(=O)NCC(C)C)c4)cnc3[nH]2)cc1`, for which the Activity was 98%.

The next assay addresses Insulin receptor (Homo sapiens) (UniProt P06213). The experiment in a line: Inhibition of human IR assessed as residual activity at 1 uM relative to control.
As to `COc1ccc(-c2nc3cc(-c4csc(C(=O)NCCC(C)C)c4)cnc3[nH]2)cc1`, the Activity worked out at 80%.

As for `COc1ccc(-c2nc3cc(-c4csc(C(=O)NCC(C)(C)C)c4)cnc3[nH]2)cc1`, the Activity is 92%.

`COc1ccc(-c2nc3cc(-c4csc(C(=O)NCC(C)C)c4)cnc3[nH]2)cc1`: the Activity is 102%.

The target of the next assay is Protein kinase C theta type (Homo sapiens) (UniProt Q04759). The experiment in a line: Inhibition of human PKC-theta assessed as residual activity at 1 uM relative to control.
Sequence of Protein kinase C theta type (Homo sapiens) (Q04759 whole entry, looked up): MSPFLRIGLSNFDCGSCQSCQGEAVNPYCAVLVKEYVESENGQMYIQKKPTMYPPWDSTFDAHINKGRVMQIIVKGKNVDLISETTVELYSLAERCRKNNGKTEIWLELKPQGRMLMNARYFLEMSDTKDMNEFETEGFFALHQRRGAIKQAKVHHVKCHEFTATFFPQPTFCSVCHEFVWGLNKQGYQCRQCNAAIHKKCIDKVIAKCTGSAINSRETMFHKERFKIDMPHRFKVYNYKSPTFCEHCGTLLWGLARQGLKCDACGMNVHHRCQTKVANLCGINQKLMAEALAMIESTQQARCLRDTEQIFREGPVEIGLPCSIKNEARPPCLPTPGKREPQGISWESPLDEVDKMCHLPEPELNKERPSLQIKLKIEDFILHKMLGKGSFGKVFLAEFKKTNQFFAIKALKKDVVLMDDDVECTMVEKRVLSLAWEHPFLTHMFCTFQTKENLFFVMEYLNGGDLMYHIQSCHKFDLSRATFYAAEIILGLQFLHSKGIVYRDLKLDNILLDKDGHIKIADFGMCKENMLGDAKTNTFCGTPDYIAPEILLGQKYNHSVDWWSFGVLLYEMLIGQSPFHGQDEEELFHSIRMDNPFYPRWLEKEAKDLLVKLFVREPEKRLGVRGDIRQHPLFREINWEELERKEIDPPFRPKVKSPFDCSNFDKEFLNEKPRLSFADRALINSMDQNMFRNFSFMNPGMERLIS
Take `COc1ccc(-c2nc3cc(-c4csc(C(=O)NCCC(C)C)c4)cnc3[nH]2)cc1`: the Activity came out at 98%.

Regarding `COc1ccc(-c2nc3cc(-c4csc(C(=O)NCC(C)(C)C)c4)cnc3[nH]2)cc1`, the Activity amounted to 90%.

Turning to `COc1ccc(-c2nc3cc(-c4csc(C(=O)NCC(C)C)c4)cnc3[nH]2)cc1`, the Activity was 89%.

Another assay concerns the target T1, Ephrin type-B receptor 4 (Homo sapiens) (UniProt P54760).
T1 sequence (whole entry): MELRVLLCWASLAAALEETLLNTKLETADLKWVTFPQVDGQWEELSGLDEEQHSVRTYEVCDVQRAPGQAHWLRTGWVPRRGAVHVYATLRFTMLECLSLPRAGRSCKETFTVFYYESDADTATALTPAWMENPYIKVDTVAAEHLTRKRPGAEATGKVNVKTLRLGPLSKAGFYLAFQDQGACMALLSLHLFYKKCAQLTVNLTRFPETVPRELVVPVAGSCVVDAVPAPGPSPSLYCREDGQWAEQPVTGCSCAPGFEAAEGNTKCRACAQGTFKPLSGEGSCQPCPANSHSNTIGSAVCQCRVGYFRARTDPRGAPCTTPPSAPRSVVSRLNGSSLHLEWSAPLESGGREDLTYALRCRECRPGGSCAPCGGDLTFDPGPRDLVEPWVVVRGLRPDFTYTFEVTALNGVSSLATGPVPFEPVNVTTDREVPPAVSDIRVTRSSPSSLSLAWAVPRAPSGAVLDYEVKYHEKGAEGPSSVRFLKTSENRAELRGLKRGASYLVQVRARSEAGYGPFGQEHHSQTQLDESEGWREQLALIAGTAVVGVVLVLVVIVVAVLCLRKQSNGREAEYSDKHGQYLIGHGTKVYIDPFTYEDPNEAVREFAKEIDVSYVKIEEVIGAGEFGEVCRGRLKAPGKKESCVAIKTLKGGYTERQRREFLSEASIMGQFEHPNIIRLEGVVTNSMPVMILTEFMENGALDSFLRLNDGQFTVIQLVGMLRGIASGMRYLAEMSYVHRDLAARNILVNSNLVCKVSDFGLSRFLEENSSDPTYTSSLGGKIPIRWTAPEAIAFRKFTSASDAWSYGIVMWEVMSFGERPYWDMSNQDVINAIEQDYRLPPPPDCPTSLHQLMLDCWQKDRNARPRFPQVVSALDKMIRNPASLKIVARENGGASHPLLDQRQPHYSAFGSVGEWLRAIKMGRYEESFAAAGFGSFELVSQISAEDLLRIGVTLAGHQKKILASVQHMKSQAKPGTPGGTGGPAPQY
As to the kind of experiment: Inhibition of human EPHB4 assessed as residual activity at 1 uM relative to control.
Consider `COc1ccc(-c2nc3cc(-c4csc(C(=O)NCCC(C)C)c4)cnc3[nH]2)cc1`, for which the Activity is 95%.

As for `COc1ccc(-c2nc3cc(-c4csc(C(=O)NCC(C)(C)C)c4)cnc3[nH]2)cc1`, the Activity worked out at 79%.

With `COc1ccc(-c2nc3cc(-c4csc(C(=O)NCC(C)C)c4)cnc3[nH]2)cc1`, the Activity was 74%.

A further assay addresses T2, Cytoplasmic tyrosine-protein kinase BMX (Homo sapiens) (UniProt P51813).
T2 sequence (whole entry): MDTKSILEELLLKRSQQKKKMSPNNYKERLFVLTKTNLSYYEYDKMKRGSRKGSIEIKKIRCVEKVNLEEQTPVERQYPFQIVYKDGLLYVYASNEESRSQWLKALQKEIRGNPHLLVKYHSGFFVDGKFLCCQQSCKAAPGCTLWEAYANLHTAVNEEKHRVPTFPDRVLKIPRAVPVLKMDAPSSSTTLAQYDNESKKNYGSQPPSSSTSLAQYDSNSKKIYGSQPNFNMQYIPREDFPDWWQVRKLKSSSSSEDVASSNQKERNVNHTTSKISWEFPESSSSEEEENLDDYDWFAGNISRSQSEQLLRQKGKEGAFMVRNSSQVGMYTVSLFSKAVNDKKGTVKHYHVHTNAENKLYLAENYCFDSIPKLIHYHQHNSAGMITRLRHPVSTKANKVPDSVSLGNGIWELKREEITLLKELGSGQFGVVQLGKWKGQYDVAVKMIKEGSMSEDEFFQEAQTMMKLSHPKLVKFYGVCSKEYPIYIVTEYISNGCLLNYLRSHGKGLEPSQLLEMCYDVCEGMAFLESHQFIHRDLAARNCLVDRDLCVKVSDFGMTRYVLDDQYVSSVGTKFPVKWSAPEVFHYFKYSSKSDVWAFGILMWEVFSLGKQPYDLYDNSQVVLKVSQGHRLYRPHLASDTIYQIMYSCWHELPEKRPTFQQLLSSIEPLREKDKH
The experiment in a line: Inhibition of human BMX assessed as residual activity at 1 uM relative to control.
In the case of `COc1ccc(-c2nc3cc(-c4csc(C(=O)NCCC(C)C)c4)cnc3[nH]2)cc1`, the Activity was 105%.

Regarding `COc1ccc(-c2nc3cc(-c4csc(C(=O)NCC(C)(C)C)c4)cnc3[nH]2)cc1`, the Activity turned out to be 100%.

For the molecule `COc1ccc(-c2nc3cc(-c4csc(C(=O)NCC(C)C)c4)cnc3[nH]2)cc1`, the Activity came to 92%.

Another assay deals with RAF proto-oncogene serine/threonine-protein kinase (Homo sapiens) (UniProt P04049). As to the kind of experiment: Inhibition of human c-RAF assessed as residual activity at 1 uM relative to control.
Sequence of RAF proto-oncogene serine/threonine-protein kinase (Homo sapiens) (P04049 whole entry): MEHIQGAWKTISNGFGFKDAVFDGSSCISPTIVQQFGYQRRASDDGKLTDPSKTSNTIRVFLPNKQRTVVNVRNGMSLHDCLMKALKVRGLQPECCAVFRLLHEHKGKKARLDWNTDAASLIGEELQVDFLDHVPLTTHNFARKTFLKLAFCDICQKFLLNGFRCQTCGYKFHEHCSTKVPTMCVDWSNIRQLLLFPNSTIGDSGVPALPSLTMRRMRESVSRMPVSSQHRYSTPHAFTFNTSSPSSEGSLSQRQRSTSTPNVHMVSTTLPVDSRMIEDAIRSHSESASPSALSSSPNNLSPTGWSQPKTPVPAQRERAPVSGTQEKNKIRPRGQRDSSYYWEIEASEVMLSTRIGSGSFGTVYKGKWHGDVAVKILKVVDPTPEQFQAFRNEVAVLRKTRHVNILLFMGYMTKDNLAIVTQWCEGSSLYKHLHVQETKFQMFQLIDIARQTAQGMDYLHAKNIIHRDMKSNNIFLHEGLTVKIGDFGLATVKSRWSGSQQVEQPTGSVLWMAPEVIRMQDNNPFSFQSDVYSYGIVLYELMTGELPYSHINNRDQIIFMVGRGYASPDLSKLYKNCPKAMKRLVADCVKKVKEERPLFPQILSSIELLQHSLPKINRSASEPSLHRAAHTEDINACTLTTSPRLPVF
For `COc1ccc(-c2nc3cc(-c4csc(C(=O)NCCC(C)C)c4)cnc3[nH]2)cc1`, the Activity was determined as 92%.

For `COc1ccc(-c2nc3cc(-c4csc(C(=O)NCC(C)(C)C)c4)cnc3[nH]2)cc1`, the Activity turned out to be 108%.

Take `COc1ccc(-c2nc3cc(-c4csc(C(=O)NCC(C)C)c4)cnc3[nH]2)cc1`: the Activity came out at 96%.

Another assay has as its target Misshapen-like kinase 1 (Homo sapiens) (UniProt Q8N4C8). As to the kind of experiment: Inhibition of human MINK assessed as residual activity at 1 uM relative to control.
Consider `COc1ccc(-c2nc3cc(-c4csc(C(=O)NCCC(C)C)c4)cnc3[nH]2)cc1`, for which the Activity turned out to be 86%.

On to `COc1ccc(-c2nc3cc(-c4csc(C(=O)NCC(C)(C)C)c4)cnc3[nH]2)cc1`, for which the Activity is 82%.

As for `COc1ccc(-c2nc3cc(-c4csc(C(=O)NCC(C)C)c4)cnc3[nH]2)cc1`, the Activity amounted to 99%.

The next assay concerns the target T3, Serine/threonine-protein kinase ULK2 (Homo sapiens) (UniProt Q8IYT8).
T3 sequence (whole entry): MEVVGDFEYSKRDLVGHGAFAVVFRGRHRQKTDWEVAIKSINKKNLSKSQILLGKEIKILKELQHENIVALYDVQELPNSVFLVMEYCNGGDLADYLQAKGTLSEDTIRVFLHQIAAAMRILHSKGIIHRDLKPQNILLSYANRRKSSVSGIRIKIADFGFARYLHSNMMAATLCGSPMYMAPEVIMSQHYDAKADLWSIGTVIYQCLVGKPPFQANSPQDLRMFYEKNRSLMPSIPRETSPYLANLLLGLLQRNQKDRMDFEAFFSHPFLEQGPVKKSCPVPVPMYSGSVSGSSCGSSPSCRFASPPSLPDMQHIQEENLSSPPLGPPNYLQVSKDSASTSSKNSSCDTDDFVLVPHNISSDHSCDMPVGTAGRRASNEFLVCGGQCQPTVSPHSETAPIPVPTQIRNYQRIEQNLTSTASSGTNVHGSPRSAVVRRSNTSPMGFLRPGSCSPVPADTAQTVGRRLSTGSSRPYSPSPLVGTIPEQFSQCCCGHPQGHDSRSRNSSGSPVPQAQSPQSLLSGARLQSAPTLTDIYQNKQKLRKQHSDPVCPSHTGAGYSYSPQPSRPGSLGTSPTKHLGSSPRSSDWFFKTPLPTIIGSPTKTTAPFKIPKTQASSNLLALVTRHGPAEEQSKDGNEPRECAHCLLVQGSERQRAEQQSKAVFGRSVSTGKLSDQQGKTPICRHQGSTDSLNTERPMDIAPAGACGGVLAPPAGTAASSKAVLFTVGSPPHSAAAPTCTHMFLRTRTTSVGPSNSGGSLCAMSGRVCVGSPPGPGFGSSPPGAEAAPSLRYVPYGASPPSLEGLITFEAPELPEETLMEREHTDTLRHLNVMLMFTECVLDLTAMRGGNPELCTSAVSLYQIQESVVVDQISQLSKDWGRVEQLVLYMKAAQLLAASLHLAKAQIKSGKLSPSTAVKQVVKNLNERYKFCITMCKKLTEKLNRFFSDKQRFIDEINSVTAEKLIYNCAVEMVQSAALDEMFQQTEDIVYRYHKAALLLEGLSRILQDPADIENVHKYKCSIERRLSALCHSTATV
The experiment in a line: Inhibition of human ULK2 assessed as residual activity at 1 uM relative to control.
`COc1ccc(-c2nc3cc(-c4csc(C(=O)NCCC(C)C)c4)cnc3[nH]2)cc1`: the Activity was found to be 40%.

As for `COc1ccc(-c2nc3cc(-c4csc(C(=O)NCC(C)(C)C)c4)cnc3[nH]2)cc1`, the Activity stood at 53%.

For `COc1ccc(-c2nc3cc(-c4csc(C(=O)NCC(C)C)c4)cnc3[nH]2)cc1`, the Activity was found to be 42%.
